According to patent US9320771B2, “TTO-based wide spectrum therapeutics, disinfectants and anesthetics for use in aquaculture” (priority 2006, dated 2016):
Where two headings read alike, the source gives them in different places.

Legend:
viral diseases of fish = details: cited from earlier work
[1] = tested on: Red-clawed Crayfish (Cherax Quadricarinatus); experiment: Growth rate of Red-clawed Crayfish; assay type: in vivo; details: compared to the control group as base reference
Procedure: In a separate experiment the growth rate of Red-clawed Crayfish treated with the TTO formulation was tested in comparison to an untreated tank and to two other disinfecting agents: formaldehyde and sodium bromide (e.g., commercially available Bromex™).

[2] = tested on: atypical Aeromonas salmonicida; experiment: Culture and sensitivity test, zones of inhibition on T.S.A. culture media; assay type: cell-based; details: 24 h at 24° C.; for zone of inhibition at 30 µg/disc: Aeromonas salmonicida, 24 h, read-out: Zones of inhibition (mm) after 24 h
Procedure: Four TTO-based compositions of the present invention, namely Compositions A-D (See Example 7) were evaluated in their efficacy to inhibit and prevent growth of atypical Aeromonas salmonicida, the causative agent of ulcerative disease of carps on T.S.A. culture media. Every culture plate was inoculated with Gram-negative Aeromonas Bacteria obtained from ulcerated Goldfish. Plates were sterile cultures incubated for 24 h at a temperature of 24° C. Inhibition of the TTO-based compositions was compared simultaneously with 2 familiar anti-bacterial medications, namely (i) Tetracycline (30 μg per disc); and (ii), Norfloxacin (10 30 μg per disc). Comparison discs were supplemented in the lab with 20 to 30 μg of the TTO-based compositions each: 50% Composition D; 50% Composition C; and 66% Composition B (See Example 7).

## CN(C)c1ccc(C(=C2C=CC(=[N+](C)C)C=C2)c2ccccc2)cc1 [malachite green]
Viral diseases of fish
  effectiveness against viral diseases of fish: not effective

## C=O [formaldehyde]
[1]
  growth rates: about 0.08 % per day

## CCn1cc(C(=O)O)c(=O)c2cc(F)c(N3CCNCC3)cc21 [Norfloxacin]
[2]; 10 30 μg per disc, listed as Nx.
  Zones of inhibition (mm) after 24 h: 20 mm
[2]; 10 30 μg per disc
  zone of inhibition at 30 µg/disc: 28 mm

## CN(C)[C@@H]1C(O)=C(C(N)=O)C(=O)[C@@]2(O)C(O)=C3C(=O)c4c(O)cccc4[C@@](C)(O)[C@H]3C[C@@H]12 [Tetracycline]
[2]; 30 μg per disc
  Zones of inhibition (mm) after 24 h: 22 mm
  zone of inhibition at 30 µg/disc: 18 mm
